Values of other authors, collected in US20180271836A1, “TOPICAL NON-AQUEOUS PHARMACEUTICAL FORMULATIONS CONTAINING AN ALKYL SULFOXIDE FOR THE TREATMENT OF TOPICAL REFERENCE INFECTIONS” (priority 2012, published 2018).

Clc1ccc(COC(Cn2ccnc2)c2ccc(Cl)cc2Cl)c(Cl)c1 (stereo not shown) [miconazole]
pKa: 6.5
